Values after ≈ are worked out from the molar mass of the structure shown. Active and inactive are the calls of the source. No cut-off for these calls is given here.
Experiments:
[1] = system: Pseudomonas aeruginosa; experiment: Antibacterial activity against colistin-sensitive Pseudomonas aeruginosa after 24 hrs by microbroth dilution method; format: functional
[2] = system: Escherichia coli; experiment: Antibacterial activity against Escherichia coli assessed as induction of bacterial membrane depolarization at MIC measured up to 21 mins by fluorescence assay relative to squalamine; format: functional
[3] = system: Staphylococcus aureus; experiment: Antibacterial activity against Staphylococcus aureus ATCC 25923 after 24 hrs by microbroth dilution method in presence of Mg2+; format: functional
[4] = system: Escherichia coli; experiment: Ratio of MIC for Escherichia coli ATCC 25922 in presence of Mg2+ to MIC for Escherichia coli ATCC 25922 in absence of Mg2+; format: functional
[5] = system: Pseudomonas aeruginosa; experiment: Antibacterial activity against Pseudomonas aeruginosa after 24 hrs by microbroth dilution method; format: functional
[6] = system: Staphylococcus aureus; experiment: Antibacterial activity against Staphylococcus aureus after 24 hrs by microbroth dilution method; format: functional
[7] = system: Staphylococcus aureus; experiment: Antibacterial activity against oxacillin-resistant Staphylococcus aureus after 24 hrs by microbroth dilution method; format: functional
[8] = system: Escherichia coli; experiment: Antibacterial activity against Escherichia coli after 24 hrs by microbroth dilution method; format: functional
[9] = system: Inquilinus limosus; experiment: Antibacterial activity against colistin-resistant Inquilinus limosus after 24 hrs by microbroth dilution method; format: functional
[10] = system: Escherichia coli; experiment: Antibacterial activity against Escherichia coli assessed as induction of ATP efflux at 4 times MIC after 5 mins by luminometry analysis; format: functional
[11] = system: Staphylococcus aureus; experiment: Antibacterial activity against Staphylococcus aureus assessed as induction of bacterial membrane depolarization at MIC measured up to 21 mins by fluorescence assay relative to squalamine; format: functional
[12] = system: Escherichia coli; experiment: Antibacterial activity against Escherichia coli ATCC 25922 after 24 hrs by microbroth dilution method in presence of Mg2+; format: functional
[13] = system: Pseudomonas aeruginosa; experiment: Bactericidal activity against Pseudomonas aeruginosa DSM 939 assessed as complete killing at MIC after 2 hrs by time-kill assay; format: functional, organism-based
[14] = system: Burkholderia cepacia; experiment: Antibacterial activity against Colistin resistant Burkholderia cepacia after 24 hrs by microbroth dilution method; format: functional
[15] = system: Staphylococcus aureus; experiment: Bactericidal activity against Staphylococcus aureus DSM 799 assessed as log decrease in bacterial count at MIC after 1 hr by time-kill assay; format: functional
[16] = system: Staphylococcus aureus; experiment: Antibacterial activity against Staphylococcus aureus ATCC 25923 after 24 hrs by microbroth dilution method in absence of Mg2+; format: functional
[17] = system: Escherichia coli; experiment: Antibacterial activity against Escherichia coli ATCC 25922 after 24 hrs by microbroth dilution method in absence of Mg2+; format: functional
[18] = system: Staphylococcus aureus; experiment: Antibacterial activity against oxacillin-sensitive Staphylococcus aureus after 24 hrs by microbroth dilution method; format: functional
[19] = system: Staphylococcus aureus; experiment: Antibacterial activity against Staphylococcus aureus assessed as induction of ATP efflux at 4 times MIC after 5 mins by luminometry; format: functional
[20] = system: Escherichia coli; experiment: Antibacterial activity against Escherichia coli assessed as induction of bacterial membrane depolarization at MIC measured up to 21 mins by fluorescence assay; format: functional, organism-based
[21] = system: Staphylococcus aureus; experiment: Antibacterial activity against Staphylococcus aureus assessed as induction of bacterial membrane depolarization at MIC after 3 mins by fluorescence assay; format: functional
[22] = system: Staphylococcus aureus; experiment: Antibacterial activity against Staphylococcus aureus assessed as induction of bacterial membrane depolarization at MIC measured up to 21 mins by fluorescence assay; format: functional, organism-based
[23] = system: Staphylococcus aureus; experiment: Bactericidal activity against Staphylococcus aureus DSM 799 assessed as log decrease in bacterial count at MIC after 2 hrs by time-kill assay; format: functional

| Molecule | MIC [1] [µg/mL] | MIC [5] [µg/mL] | MIC [6] [µg/mL] | MIC [7] [µg/mL] | MIC [8] [µg/mL] | MIC [9] [µg/mL] | MIC [14] [µg/mL] | MIC [18] [µg/mL] | other results |
| --- | --- | --- | --- | --- | --- | --- | --- | --- | --- |
| C[C@@H](NCCCCCCCCN)[C@H]1CC[C@H]2[C@@H]3CCC4=C[C@@H](NCCCCCCCCN)CC[C@]4(C)[C@H]3CC[C@]12C | 2.5 (≈ 4.38 µM) | 2.5 (≈ 4.38 µM) | 2.5 (≈ 4.38 µM) | 5 (≈ 8.76 µM) | 5 (≈ 8.76 µM) | 10 (≈ 17.5 µM) | > 40 | 2.5 (≈ 4.38 µM) | fold change (FC) [2]: 4; MIC ([3]; ATCC 25923, 24 h): 5 µg/mL; Ratio [4]: 4; Activity [10]: <35%; fold change (FC) [11]: 4; MIC ([12]; ATCC 25922, 24 h): 10 µg/mL; Activity [13]: Active; FC [15]: 5; MIC ([16]; ATCC 25923, 24 h): 2.5 µg/mL (≈ 4.38 µM); MIC ([17]; ATCC 25922, 24 h): 2.5 µg/mL (≈ 4.38 µM) |
| C[C@@H](NCCN)[C@H]1CC[C@H]2[C@@H]3CCC4=C[C@@H](NCCN)CC[C@]4(C)[C@H]3CC[C@]12C | 20 (≈ 49.7 µM) | 20 (≈ 49.7 µM) | 20 (≈ 49.7 µM) | 10 (≈ 24.8 µM) | 20 (≈ 49.7 µM) | > 40 | > 40 | 20 (≈ 49.7 µM) | – |
| COLISTIMETHATE SODIUM | 5 | 5 | – | – | 2.5 | > 100 | > 40 | – | MIC [3]: > 128 µg/mL; Ratio [4]: 4; Activity [19]: inactive; Activity [10]: 4%; MIC [12]: 16 µg/mL; MIC [16]: > 128 µg/mL; MIC [17]: 0.5 µg/mL |
| C[C@@H](NCCCCCCCN)[C@H]1CC[C@H]2[C@@H]3CCC4=C[C@@H](NCCCCCCCN)CC[C@]4(C)[C@H]3CC[C@]12C | 10 (≈ 18.4 µM) | 10 (≈ 18.4 µM) | 2.5 (≈ 4.6 µM) | 5 (≈ 9.21 µM) | 5 (≈ 9.21 µM) | 20 (≈ 36.8 µM) | > 40 | 2.5 (≈ 4.6 µM) | – |
| CC(C)[C@@H](CC[C@@H](C)[C@H]1CC[C@H]2[C@@H]3[C@H](O)C[C@H]4C[C@@H](NCCCNCCCCN)CC[C@]4(C)[C@H]3CC[C@]12C)OS(=O)(=O)O [SQUALAMINE] | 5 (≈ 7.96 µM) | 2.5 (≈ 3.98 µM) | 1.25 (≈ 1.99 µM) | 1.25 (≈ 1.99 µM) | 5 (≈ 7.96 µM) | 5 (≈ 7.96 µM) | > 40 | 0.3 (≈ 0.478 µM) | MIC ([3]; ATCC 25923, 24 h): 1.25 µg/mL; Ratio [4]: 4; Activity [19]: 100%; Activity [10]: <35%; MIC ([12]; ATCC 25922, 24 h): 32 µg/mL; Activity [20]: inactive; Activity [21]: 80%; Activity [22]: Active; MIC ([16]; ATCC 25923, 24 h): 1.25 µg/mL (≈ 1.99 µM); MIC ([17]; ATCC 25922, 24 h): 2.5 µg/mL (≈ 3.98 µM) |
| C[C@@H](NCCCCCCN)[C@H]1CC[C@H]2[C@@H]3CCC4=C[C@@H](NCCCCCCN)CC[C@]4(C)[C@H]3CC[C@]12C | 20 (≈ 38.8 µM) | 10 (≈ 19.4 µM) | 2.5 (≈ 4.86 µM) | 5 (≈ 9.71 µM) | 5 (≈ 9.71 µM) | 20 (≈ 38.8 µM) | > 40 | 5 (≈ 9.71 µM) | – |
| C[C@@H](NCCCCCCCCCN)[C@H]1CC[C@H]2[C@@H]3CCC4=C[C@@H](NCCCCCCCCCN)CC[C@]4(C)[C@H]3CC[C@]12C | 40 (≈ 66.8 µM) | 40 (≈ 66.8 µM) | 5 (≈ 8.35 µM) | 5 (≈ 8.35 µM) | 20 (≈ 33.4 µM) | 20 (≈ 33.4 µM) | > 40 | 5 (≈ 8.35 µM) | – |
| C[C@@H](N)[C@H]1CC[C@H]2[C@@H]3CCC4=C[C@@H](N)CC[C@]4(C)[C@H]3CC[C@]12C | > 40 | > 40 | 40 (≈ 126 µM) | 40 (≈ 126 µM) | > 40 | > 40 | > 40 | > 40 | – |
| C[C@@H](NCCCCN)[C@H]1CC[C@H]2[C@@H]3CCC4=C[C@@H](NCCCCN)CC[C@]4(C)[C@H]3CC[C@]12C | 20 (≈ 43.6 µM) | 20 (≈ 43.6 µM) | 5 (≈ 10.9 µM) | 6 (≈ 13.1 µM) | 10 (≈ 21.8 µM) | 40 (≈ 87.2 µM) | > 40 | 10 (≈ 21.8 µM) | – |
| C[C@@H](NCCCCCN)[C@H]1CC[C@H]2[C@@H]3CCC4=C[C@@H](NCCCCCN)CC[C@]4(C)[C@H]3CC[C@]12C | 20 (≈ 41.1 µM) | 10 (≈ 20.5 µM) | 5 (≈ 10.3 µM) | 10 (≈ 20.5 µM) | 10 (≈ 20.5 µM) | 40 (≈ 82.2 µM) | > 40 | 5 (≈ 10.3 µM) | – |
| C[C@@H](NCCCCCCCCCCCCN)[C@H]1CC[C@H]2[C@@H]3CCC4=C[C@@H](NCCCCCCCCCCCCN)CC[C@]4(C)[C@H]3CC[C@]12C | 40 (≈ 58.5 µM) | 40 (≈ 58.5 µM) | 10 (≈ 14.6 µM) | 10 (≈ 14.6 µM) | 20 (≈ 29.3 µM) | 20 (≈ 29.3 µM) | > 40 | 5 (≈ 7.32 µM) | – |
| CN[C@@H]1C=C2CC[C@H]3[C@@H]4CC[C@H]([C@@H](C)NC)[C@@]4(C)CC[C@@H]3[C@@]2(C)CC1 | > 40 | > 40 | 40 (≈ 116 µM) | 20 (≈ 58 µM) | > 40 | > 40 | > 40 | 20 (≈ 58 µM) | – |
| C[C@@H](NCCCN)[C@H]1CC[C@H]2[C@@H]3CCC4=C[C@@H](NCCCN)CC[C@]4(C)[C@H]3CC[C@]12C | 20 (≈ 46.4 µM) | 10 (≈ 23.2 µM) | 10 (≈ 23.2 µM) | 5 (≈ 11.6 µM) | 10 (≈ 23.2 µM) | 20 (≈ 46.4 µM) | > 40 | 10 (≈ 23.2 µM) | – |
| C[C@@H](NCCCCCCCCCCN)[C@H]1CC[C@H]2[C@@H]3CCC4=C[C@@H](NCCCCCCCCCCN)CC[C@]4(C)[C@H]3CC[C@]12C | 40 (≈ 63.8 µM) | 40 (≈ 63.8 µM) | 10 (≈ 15.9 µM) | 5 (≈ 7.97 µM) | 20 (≈ 31.9 µM) | 20 (≈ 31.9 µM) | > 40 | 5 (≈ 7.97 µM) | – |
| NC[C@H]1O[C@H](O[C@H]2[C@H](O)[C@@H](O[C@H]3O[C@H](CO)[C@@H](O)[C@H](N)[C@H]3O)[C@H](N)C[C@@H]2N)[C@H](N)C[C@@H]1O [TOBRAMYCIN] | 5 (≈ 10.7 µM) | 5 (≈ 10.7 µM) | 1.25 (≈ 2.67 µM) | – | 2.5 (≈ 5.35 µM) | > 40 | > 40 | 1.25 (≈ 2.67 µM) | MIC ([3]; ATCC 25923, 24 h): 2 µg/mL; FC [23]: 5; MIC ([12]; ATCC 25922, 24 h): 1 µg/mL; MIC ([16]; ATCC 25923, 24 h): 1 µg/mL (≈ 2.14 µM); MIC ([17]; ATCC 25922, 24 h): 2 µg/mL (≈ 4.28 µM) |

Reference: ChEMBL document CHEMBL1833963, “Synthesis of new 3,20-bispolyaminosteroid squalamine analogues and evaluation of their antimicrobial activities” (2011)
